We go through eleven compounds from ChEMBL document CHEMBL1136422, “Synthesis, in vitro, and in vivo evaluation of phosphate ester derivatives of combretastatin A-4” (Bioorg Med Chem Lett, 2003).

Bounds are passed on as bounds.

Assay [1] is described as follows: In vitro cytotoxicity evaluated in mouse heart endotheliaoma cell (MHEC5-T) after incubation of the cells for 1 hr. The class given is functional, cell-based.
For a further assay, the system named is Mus musculus. The assay is described as follows: Vascular shutdown expressed as vessel density decrease in percent of the control at the dose of 100 mg/kg. The class given is functional.
A short description of assay [2]: In vitro cytotoxicity evaluated in mouse heart endotheliaoma cell (MHEC5-T) after incubation of the cells for 5 days. Type of assay: functional, cell-based. Conditions: 120 h.
Another assay concerns HT-29. Nature of the assay: Cytotoxicity evaluated against colon cancer cell line (HT-29). The class given is functional, cell-based. Conditions: Homo sapiens.

As usually defined, the IC50 is the point on the concentration scale where inhibition reaches its midpoint. Regarding `CCCCOP(=O)(OCCCC)Oc1cc(/C=C\c2cc(OC)c(OC)c(OC)c2)ccc1OC`, the IC50 in assay [1] is 8000 nM; in assay [2] it was 260 nM. Also, in the assay on Mus musculus, the “Vessel density decrease vs control” value is reported as 0%.
In the case of `COc1ccc(/C=C\c2cc(OC)c(OC)c(OC)c2)cc1O` [COMBRETASTATIN A4], the results for the IC50 in assay [1] and in assay [2] were 1050 nM and 4 nM, respectively. The “Vessel density decrease vs control” value in the assay with Mus musculus is 71%.
The matching figures for `COc1ccc(/C=C\c2cc(OC)c(OC)c(OC)c2)cc1OP(=O)(O)OCC(F)(F)F.N`: 10000 nM, 60 nM and 0%.
With `COc1ccc(/C=C\c2cc(OC)c(OC)c(OC)c2)cc1OP(=O)([O-])[O-].[Na+].[Na+]` [FOSBRETABULIN DISODIUM], the IC50 in assay [1] stood at 800 nM; in assay [2] it was 2 nM; in the assay with HT-29, 200 nM. In addition, in the assay on Mus musculus, the “Vessel density decrease vs control” value came out at 88%.
As for `COc1ccc(/C=C\c2cc(OC)c(OC)c(OC)c2)cc1OP(=O)([O-])Oc1cc(/C=C\c2cc(OC)c(OC)c(OC)c2)ccc1OC.[Na+]`, the IC50 in assay [1] is > 25000 nM; in assay [2] it was 510 nM. Besides, the “Vessel density decrease vs control” value with Mus musculus was 0%.
The matching figures for `COc1ccc(/C=C\c2cc(OC)c(OC)c(OC)c2)cc1OP(=O)(O)OC1CCCCC1.N`: > 25000 nM, 3000 nM and 0%.
The matching figures for `COc1ccc(/C=C\c2cc(OC)c(OC)c(OC)c2)cc1OP(=O)(OC)OC`: 35000 nM, 130 nM and 20%.
The matching figures for `COc1ccc(/C=C\c2cc(OC)c(OC)c(OC)c2)cc1OP(=O)(O)OC.N`: 38000 nM, 70 nM and 0%.
For `COc1ccc(/C=C\c2cc(OC)c(OC)c(OC)c2)cc1OP(=O)(O)Oc1cccc(Cl)c1.N`, the half-inhibitory concentration (IC50) in assay [1] was > 25000 nM; in assay [2], 3000 nM. In addition, the “Vessel density decrease vs control” value in the assay with Mus musculus worked out at 90%.
Regarding `COc1ccc(/C=C\c2cc(OC)c(OC)c(OC)c2)cc1OCCCS(=O)(=O)[O-].[Na+]`, the IC50 in assay [1] and in assay [2] was > 25000 nM in each case. Besides, the “Vessel density decrease vs control” value in the assay on Mus musculus is given as 10%.
Regarding `CCCCCCCCOP(=O)(O)Oc1cc(/C=C\c2cc(OC)c(OC)c(OC)c2)ccc1OC.N`, the figures for the IC50 in assay [1] and in assay [2] were 25000 nM and 70 nM, respectively. The “Vessel density decrease vs control” value in the assay with Mus musculus was determined as 89%.
